Results on 2 compounds are retold here after patent US10647677B2, “Analogues of hydroxychloroquine (HCQ) without retinal toxicity” (Inoviem Scientific, priority 2015, dated 2020).

Data set [1] has as its system C57Bl/6 mice, pulmonary vasculitis induced by immune complexes. As to the kind of experiment: Pulmonary vasculitis induced by immune complexes: neutrophils in bronchoalveolar lavages (flow cytometry). In kind it is in vivo. The conditions noted are these: HCQ 10 mg/kg, CB137 10, 30 and 100 mg/kg, 4 hours after instillation, compared to control + (FIG. 5). The procedure: Female C57Bl/6 strain mice from the Jackson Laboratory, 8-10 weeks old and weighing about 20 g, are used in all experiments. The mice are maintained at a temperature of 23° C.±1° C. with 12-hour light/dark cycle. Mice have access to water and food ad libitum and are housed at least one week before the beginning of any experiments.
A retro-orbital blood sampling was performed using capillaries containing heparin on mice anesthetized with isoflurane the day before the manipulation. The next day, the mice were anesthetized with a mixture of ketamine and xylasin (90 mg/kg and 125 mg/kg, respectively). The immune IgG complex is induced in the lungs by intratracheal instillation of 0.5 mg of anti-BSA rabbit antibody (MP Biomedicals, Strasbourg, France) and by the administration of 0.5 mg per mouse of BSA antigen in the caudal vein (Warner et al., 2001 and Warren et al., 1989). The specified treatment (PF-1355, CB137 or solvent alone) is administered enterally. The animals are euthanized 4 hours after intratracheal instillation.
The animals are euthanized 4 hours after the intratracheal instillation by a lethal injection of pentobarbital. A submandibular blood sample is taken. […] The total number of cells, excluding any residual red cells and dead cells stained with trypan blue, is determined under the light microscope on a Malassez cell. […]

In a further data set the test system is retina of mice. As to the kind of experiment: Determination of retinopathy: histological analysis of the retina. The settings on record: HCQ 10 mg/kg or CB137 5, 10 and 15 mg/kg, 5 times weekly for 62 days (FIGS. 3 and 4). In kind it is in vivo. The protocol:
Histology: 7-week-old mice are injected with 10 mg/kg HCQ or 5, 10 and 15 mg/kg of the CB137 analog 5 times weekly for a period of 62 days. After assigning them a number, the mice are randomized according to their weight and treatment. The mice are divided in groups of 5 in cages, one mouse being treated with the carrier, one with HCQ 10 mg/kg, one with CB137 5 mg/kg, one with CB137 10 mg/kg and one with CB137 15 mg/Kg. The mice are housed in an environment maintained at a temperature of 22° C., 35-55% humidity and with 12-hour cycles of light/darkness.
At the end of the experiment, the mice are euthanized by cervical dislocation. The eyeballs are isolated and stored in a solution containing 4% paraformaldehyde, 5% glutaraldehyde and 0.1 M sodium cacodylate overnight at 4° C. The samples are washed, dehydrated and embedded in paraffin. The 4-μm retinal sections are stained with 1% toluidine blue followed by 1% methylene blue. The retinal toxicity of the samples is then determined by analysis of the sections under microscope.

The target of another data set is T1, αB-crystalline (αB-C) (Homo sapiens, UniProt P02511).
T1 construct: purchased
T1 sequence (P02511 1-175): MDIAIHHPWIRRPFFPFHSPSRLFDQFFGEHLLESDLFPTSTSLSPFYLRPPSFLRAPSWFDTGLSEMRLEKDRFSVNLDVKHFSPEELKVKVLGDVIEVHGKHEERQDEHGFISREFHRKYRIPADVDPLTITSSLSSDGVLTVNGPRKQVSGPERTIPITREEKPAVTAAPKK
In words: Surface plasmon resonance (Biacore 3000) affinity on αB-crystalline. In kind it is binding. The settings on record: SPR at 25° C., read-out: Kd (M) on crystallin. The protocol:
Using the surface plasmon resonance technology (Biacore 3000), the interaction constants between HCQ analogues (HCQa) and myeloperoxidase (MPO) targets and αB-crystalline (αB-C) were measured at 25° C. according to 12 different series of experiments. First, HCQ analogues at five different concentrations (10^−6 to 10^−8 M) were injected at a rate of 10^−6 L/min for 250 s on the MPO and αB-C targets as well as on the ERK1 and ERK2 controls, followed by a dissociation phase of 150 s.
The kinetic parameters were measured using the BIAevaluation 4.1 software. The set of resonance unit values obtained with the controls were subtracted from those obtained with MPO and αB-C to compensate for non-specific bonds.
The differences in Kd values for the myeloperoxidase (MPO) and αB-crystalline (αB-C) enzymes in Tables 1 and 2 are due to the variability of commercial batches. Nevertheless, the difference between the Kd of the compounds HCQ and CB137 remains identical according to these two tests.
Analysis of the compounds in the form of sulphate salts according to the method described above: […]

The mark [2] stands for this setting: Table 2, compounds in the form of sulphate salts.

Where two headings read alike, the source gives them in different places.

As to `CCN(CCO)CCCC(C)Nc1c(Cl)cnc2cc(Cl)ccc12` (centres unmarked) [CB137], the “amount of neutrophils in bronchoalveolar lavages / lungs” value in data set [1] was “decreases the amount of neutrophils”. For the same compound, in the data set with retina of mice, the “retinal lesions (histology)” value is listed as “does not induce more lesions than in the control mice”. The Kd on αB-crystalline (αB-C) (Table 1) is 1.75e-07 M; on αB-crystalline (αB-C) (setting [2]) it was 3e-05 M.
The corresponding values for `CCN(CCO)CCCC(C)Nc1ccnc2cc(Cl)ccc12` (centres unmarked) [Commercial HCQ, hydroxychloroquine] are “slightly increase the amount of neutrophils”, “induces retinal lesions”, 2.2e-08 M and 1e-06 M.
